Measured values from US12049520B2, “Bicyclic peptide ligands specific for CD137” (priority 2017, dated 2024).
Entries after “also recorded” stand apart in the source; their conditions may differ.

Tests used:
CD137 [1] = target: T1, CD137 (Homo sapiens, UniProt Q07011); experiment: CD137 cell activity, Promega CD137 NF-κB luciferase reporter assay in Jurkat cells, antagonism of CD137L; assay type: cell-based; design: host or cells: Jurkat (CD137 Jurkat reporter cells); conditions: co-incubation with trimeric CD137L, FIG. 1
T1 sequence (Q07011 24-255): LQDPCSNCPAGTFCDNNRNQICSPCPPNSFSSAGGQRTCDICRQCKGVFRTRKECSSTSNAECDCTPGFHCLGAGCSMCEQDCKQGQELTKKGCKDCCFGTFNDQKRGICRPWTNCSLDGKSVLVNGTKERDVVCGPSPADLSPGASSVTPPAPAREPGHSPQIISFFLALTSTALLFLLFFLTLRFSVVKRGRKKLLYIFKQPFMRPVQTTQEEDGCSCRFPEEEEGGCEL
Experimental: The biological activity of the CD137-specific peptides was tested using the cellular CD137 luciferase reporter assay kit (Promega). The cells in this commercially available kit express luciferase that is activated down-stream of CD137. This assay can be used to assess agonism (exemplified by CD137 ligand, CD137L) and antagonism (exemplified by bicyclic peptide 74-01-04-N002).
The Promega CD137 cell-activity assay uses NF-κB luciferase luminescence as a read-out of CD137 activation in Jurkat cells. […] Dilute and then titrate down the bicyclic peptide in a sterile 96 well-plate. […] Prepare enough reagent for duplicate samples and then perform ⅓ dilution series dilution series. Include positive control CD137L and bicyclic peptide alone. […] Add 50 μl cells/well to white cell culture plate. Add 12.5 μl bicyclic peptide (at 6× final concentration) to the cells.
Co-incubate cells together with CD137L agonist and bicyclic peptide for 6 h at 37° C., 5% CO2. After 6 h thaw Bio-Glo™ and develop the assay at room-temperature. Add 75 μl Bio-Glo™ per well and incubate 5-10 min. Read luminescence signal on Pherastar plate-reader LUM plus models, gain 3600 using MARS software. Analyse data by calculating the percentage inhibition compared to CD137L alone. […]
The CD137 reporter activity was determined as NF-κB promotor driven luciferase activity.

CD137 [2] = target: T1, CD137; experiment: Fluorescence polarization competition binding assay, tracer BCY640 against CD137L, Urelumab, Utomilumab; design: purchased AcroBiosystems; conditions: BCY640 tracer at 1 nM, CD137 500 nM, FIGS. 2 and 3
Experimental: The binding site of the hCD137-specific Bicycle peptide was determined by competition experiment between a fluorescent labelled CD137 binding peptide and natural ligand CD137L, agonistic antibodies Urelumab and Utomilumab. Urelumab antibody binds to a distinct binding site while CD137L and Utomilumab both bind to the site termed the ligand-binding site.
The competitor agonists CD137L (R&D systems), Urelumab and Utomilumab were diluted in assay buffer 20 mM HEPES, 150 mM NaCl, 0.05% P20, pH7.5 to a top concentration of 500-1000 nM. The human CD137 protein (AcroBiosystems) was diluted to 500 nM final concentration in the assay. […] The assay was typically set up by adding 5 μL agonist competitor, 10 μL CD137 protein then 10 μL fluorescent peptide. The total volume of 25 μL was prepared in black walled and bottomed low binding low volume 384 well plates. Measurements were conducted on a BMG PHERAstar FS equipped with an FP 485 520 520 optic module at 25° C. with 200 flashes per well and a positioning delay of 0.1 second. Each well was measured every 5 minutes for 60 minutes. The gain was set in a well containing tracer without target protein. The mP-values at the end of the 60 minutes read were plotted against concentration of the agonists. Reduction in the mP-values indicates competition between the known agonist and the tracer peptide.

CD137 [3] = target: T1, CD137; experiment: CD137 direct binding assay (fluorescence polarisation); conditions: D-Alanine scan, reference BCY7151
Experimental: Affinity of the peptides of the invention for human CD137 (Ki) was determined using a fluorescence polarisation assay, in accordance with the methods disclosed in WO 2016/067035. Peptides of the invention were labelled with a fluorescent tag (fluorescein, FI) and diluted to 2.5 nM in 50 mM HEPES with 100 mM NaCl and 0.05% tween pH 7.5. CD137 protein was titrated starting at 3 μM in the same assay buffer as the peptide to assay 1 nM peptide in a total volume of 25 μL in black walled and bottomed low bind low volume 384 well plates. The assay was typically set up by adding 5 μL assay buffer, 10 μL CD137 protein then 10 μL fluorescent peptide. The concentrations of CD137 protein were 1 in 2 serial dilutions to give 12 different concentrations starting at 3 μM. Measurements were conducted on a BMG PHERAstar FS equipped with an FP 485 520 520 optic module at 25° C. with 200 flashes per well and a positioning delay of 0.1 second. Alternatively, the measurements were performed using Envision (PerkinElmer) equipped with FITC FP Dual Enh mirror, set to 30 flashes. Each well was measured every 5 minutes for 60 minutes. The gain used for analysis was determined for each tracer at the end of the 60 minutes where there was no protein in the well. The mP were fit to a standard 1:1 binding model with a quadratic equation to generate a Kd value.

Question: ACIEEGQYCFADPYMCA [BCY592] was tested. Which “effect on CD137L activity in CD137 reporter cells” value (CD137 [1]) did it give?
Answer: can act as an antagonist that inhibits CD137L activity; also recorded: inhibited CD137L activity

Question: For ACIEEGQYCFADPYMCA-Sar6-K [BCY640], which “binding site on CD137 by competition” value (CD137 [2]) is on record?
Answer: binds to the physiologically relevant epitope that is shared with both the natural CD137 ligand (CD137L) and CD137 antibody (Utomilumab)

Question: For [PEG3]-ACIEEaQYCFADPY(Nle)CA [BCY7297], which “affinity relative to the reference peptide” value (CD137 [3]) is on record?
Answer: improved affinity
